Assays:
Test in all cases: relative viability (nuclei count vs DMSO), 5 days (fraction); higher = more cells survive
[1] = compound: CC(=O)Nc1cccc(-n2c(=O)n(C3CC3)c(=O)c3c(Nc4ccc(I)cc4F)n(C)c(=O)c(C)c32)c1 [Trametinib] + Cc1cc(Nc2cc(N3CCN(C)CC3)nc(Sc3ccc(NC(=O)C4CC4)cc3)n2)n[nH]1 [Tozasertib] (partner 0.1 µM)
Outline: (§1)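 A single step with final 0.05% Triton X-100, 1% formaldehyde and 1 ug/ml Hoechst fixed the cells and stained nuclei 5 days after treatment. Lung cancer cell lines in 1536-well plates had been treated by pin tool the day after seeding with one drug alone or a fixed anchor-drug dose plus five library-drug doses (not always all listed) in √10 steps, and nuclei were counted on 4× images. Relative viability is the ratio of nuclei in treated wells to nuclei in vehicle wells, taken as the median of duplicate plates.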

[2] = compound: CC(=O)Nc1cccc(-n2c(=O)n(C3CC3)c(=O)c3c(Nc4ccc(I)cc4F)n(C)c(=O)c(C)c32)c1 [Trametinib] + Cc1nc(Nc2ncc(C(=O)Nc3c(C)cccc3Cl)s2)cc(N2CCN(CCO)CC2)n1 [Dasatinib] (partner 0.075 µM)
Outline: as §1

[3] = compound: CN1C=C(C2=CC=CC=C21)/C=C\3/C4=C(C=CC=N4)NC3=O + CCNC(=O)c1noc(-c2cc(C(C)C)c(O)cc2O)c1-c1ccc(CN2CCOCC2)cc1 [Luminespib] (partner 0.01 µM)
Outline: as §1

[4] = compound: CN1C=C(C2=CC=CC=C21)/C=C\3/C4=C(C=CC=N4)NC3=O + Cc1nc(NC(=O)N2CCC[C@H]2C(N)=O)sc1-c1ccnc(C(C)(C)C(F)(F)F)c1 [Alpelisib] (partner 2 µM)
Outline: as §1

Cell Line	relative viability ([1]; first compound 0.0025 µM)	relative viability ([1]; first compound 0.007906 µM)	relative viability ([1]; first compound 0.025 µM)	relative viability ([1]; first compound 0.07906 µM)	relative viability ([1]; first compound 0.25 µM)	relative viability ([2]; first compound 0.0025 µM)	relative viability ([2]; first compound 0.007906 µM)	relative viability ([2]; first compound 0.025 µM)	relative viability ([2]; first compound 0.07906 µM)	relative viability ([2]; first compound 0.25 µM)	relative viability ([3]; first compound 0.02 µM)	relative viability ([3]; first compound 0.06325 µM)	relative viability ([3]; first compound 0.2 µM)	relative viability ([3]; first compound 0.6325 µM)	relative viability ([3]; first compound 2 µM)	relative viability ([4]; first compound 0.02 µM)	relative viability ([4]; first compound 0.06325 µM)	relative viability ([4]; first compound 0.2 µM)	relative viability ([4]; first compound 2 µM)	relative viability ([4]; first compound 0.6325 µM)
NCI-H460	0.267	0.262	0.278	0.152	0.0343	0.369	0.176	0.138	0.085	0.0431	0.0416	0.0387	0.0352	0.0268	0.0415	0.539	0.466	0.53	0.391	–
EPLC-272H	0.207	0.203	0.212	0.149	0.266	0.275	0.231	0.215	0.138	0.12	0.156	0.309	0.169	–	0.383	1.14	0.752	–	0.835	0.83
SK-LU-1	0.301	0.309	0.286	0.264	0.181	0.192	0.183	0.148	0.15	0.159	0.201	0.185	0.191	0.184	0.2	0.879	0.671	0.956	1.17	0.94
NCI-H322M	0.465	0.361	0.387	0.331	0.369	0.239	0.239	0.247	0.266	0.284	0.812	0.76	0.798	0.946	0.929	0.839	0.725	0.773	0.708	0.753
NCI-H2405	0.695	0.687	0.664	0.497	0.468	0.209	0.187	0.19	0.173	0.183	0.809	0.603	0.629	0.738	0.74	0.654	0.776	0.769	0.7	0.842
NCI-H1666	0.589	0.546	0.602	0.541	0.475	0.812	0.841	0.755	0.666	0.506	1	1.04	1.05	0.99	1.04	0.94	0.814	0.805	0.616	0.915
NCI-H358	0.112	0.107	0.0799	0.0885	0.0721	0.137	0.117	0.103	0.11	0.143	0.397	0.377	0.403	0.309	0.407	0.824	0.776	0.752	0.791	0.833
H3255	0.572	0.777	0.579	0.514	0.411	0.512	0.334	0.288	0.238	0.346	1.03	1	0.786	0.86	0.77	0.705	0.722	0.642	0.855	0.757
LCLC-103H	0.495	0.451	0.417	0.406	0.35	0.498	0.512	0.429	0.402	0.446	0.933	0.809	0.934	1.07	1.17	1.05	1.02	0.937	0.924	0.941
NCI-H2347	0.509	0.33	0.176	0.154	0.185	0.234	0.16	0.162	0.172	0.149	–	0.288	0.352	0.339	0.569	1.09	0.972	1.02	1.1	0.89
LK-2	0.183	0.17	0.186	0.217	0.184	0.251	0.272	0.239	0.212	0.156	–	–	–	0.189	0.186	–	0.766	0.76	0.61	0.943
HCC-15	0.345	0.234	0.161	0.148	0.15	0.287	0.214	0.163	0.135	0.121	0.172	0.344	0.303	0.353	0.36	1.01	0.848	0.808	0.958	0.889
SW 1573	0.179	0.147	0.191	0.129	0.143	0.513	0.389	0.371	0.323	0.266	0.235	0.279	0.327	0.181	0.243	0.742	0.644	0.782	0.814	0.803
NCI-H838	0.275	0.24	0.225	0.217	0.22	0.251	0.322	0.214	0.27	0.249	0.314	0.336	0.345	0.269	0.325	0.603	0.859	0.792	0.937	0.901
RERF-LC-KJ	0.493	0.545	0.539	0.509	0.387	0.7	0.741	0.794	0.731	0.554	1.21	1.14	1.22	1.24	1.37	0.904	0.848	0.748	0.736	0.811
NCI-H441	0.647	0.677	0.523	0.461	0.525	0.37	0.49	0.249	0.287	0.206	0.341	0.341	0.296	0.513	0.36	0.795	–	0.898	0.881	0.91
NCI-H2170	0.733	0.702	0.466	0.709	0.616	0.56	0.476	0.37	0.347	0.416	0.623	0.616	0.626	0.778	0.738	–	0.794	0.757	0.649	0.617

Cell Line	relative viability ([1]; first compound 0.0025 µM)	relative viability ([1]; first compound 0.007906 µM)	relative viability ([1]; first compound 0.025 µM)	relative viability ([1]; first compound 0.07906 µM)	relative viability ([1]; first compound 0.25 µM)	relative viability ([2]; first compound 0.0025 µM)	relative viability ([2]; first compound 0.007906 µM)	relative viability ([2]; first compound 0.025 µM)	relative viability ([2]; first compound 0.07906 µM)	relative viability ([2]; first compound 0.25 µM)	relative viability ([3]; first compound 0.02 µM)	relative viability ([3]; first compound 0.06325 µM)	relative viability ([3]; first compound 0.2 µM)	relative viability ([3]; first compound 0.6325 µM)	relative viability ([3]; first compound 2 µM)	relative viability ([4]; first compound 0.02 µM)	relative viability ([4]; first compound 0.06325 µM)	relative viability ([4]; first compound 0.2 µM)	relative viability ([4]; first compound 2 µM)	relative viability ([4]; first compound 0.6325 µM)
PC-14	0.508	0.527	0.46	0.364	0.156	0.265	0.234	0.266	0.13	0.0632	0.212	0.138	–	0.173	0.135	0.99	1.03	1.19	1.04	0.906
NCI-H2009	0.689	0.489	0.378	0.302	0.244	0.203	0.169	0.143	0.168	0.157	0.997	1.03	1.05	1.02	1.09	1.2	1.14	1.22	1.05	1.24
NCI-H1395	0.797	0.73	0.721	0.718	0.548	0.44	0.662	0.454	0.378	0.345	0.876	0.595	0.521	0.696	0.669	1.11	1.08	–	0.928	1.3
NCI-H1437	0.266	0.289	0.239	0.204	0.175	0.374	0.207	0.162	0.118	0.217	1.14	1.08	1.22	1.25	1.24	0.877	0.897	1.15	1.16	1.1
NCI-H647	0.188	0.216	0.261	0.216	0.136	0.169	0.22	0.184	0.107	0.0699	0.177	0.124	0.192	0.128	0.324	0.977	0.948	0.904	1.14	0.951
NCI-H1793	0.281	0.226	0.253	0.164	0.205	0.26	0.25	0.244	0.212	0.242	0.228	0.202	0.204	0.186	0.189	0.979	1.02	0.654	0.675	0.668
SK-MES-1	0.955	0.921	0.745	0.466	0.361	0.324	0.313	0.208	0.171	0.156	0.777	0.557	0.62	0.684	0.699	0.763	0.853	0.84	1.02	0.963
NCI-H2087	0.189	0.166	0.111	0.12	0.108	0.366	0.236	0.117	0.127	0.156	0.173	0.175	0.197	0.151	0.154	1.16	1.21	1.17	1.22	1.05
BEN	0.461	0.497	0.458	0.602	0.476	0.304	0.296	0.228	0.269	0.319	0.286	0.394	–	0.357	0.281	1.05	0.932	0.981	1.13	1
NCI-H3122	0.367	0.322	0.183	0.217	0.142	0.767	0.512	0.13	0.144	0.146	0.0819	0.0768	0.0923	0.0892	0.0964	0.727	0.764	0.722	1	0.802
LCLC-97TM1	0.202	0.29	0.225	0.143	0.19	0.816	0.44	0.381	0.125	0.171	0.669	0.611	0.82	0.809	0.944	0.205	–	–	0.202	0.208
NCI-H2228	0.239	0.209	0.207	0.211	0.132	0.44	0.36	0.348	0.237	0.143	0.214	0.0886	–	–	0.132	0.718	0.645	–	0.674	0.919
COR-L23	0.193	0.208	0.165	0.178	0.149	0.446	0.449	0.502	0.484	0.246	0.623	0.632	0.702	0.699	0.789	0.764	0.698	0.718	0.589	0.724
EMC-BAC-2	0.369	0.354	0.41	0.457	0.328	0.352	0.407	0.419	0.443	0.365	1.19	1.18	1.29	1.17	1.19	0.673	0.452	0.736	0.799	0.768
NCI-H1944	0.262	0.21	0.185	0.185	0.177	0.193	0.177	0.164	0.144	0.145	0.706	0.742	–	0.767	0.897	0.721	0.789	–	0.748	0.833
A-427	0.217	0.159	0.158	0.166	0.173	0.75	0.397	0.178	0.262	0.171	0.849	0.902	–	1.08	1.01	1.08	1.02	–	1.13	1.08

Reference: the supplement of paper PMC10307832
